The target in experiment [1] is Serine/threonine-protein kinase MARK1 (Homo sapiens) (UniProt Q9P0L2). Kind of experiment: Inhibition of MARK1 (unknown origin) at 0.078 uM relative to control.
In experiment [2] the target is Insulin receptor (Homo sapiens) (UniProt P06213). Put plainly: Inhibition of INSR (unknown origin) at 0.078 uM relative to control.
For experiment [3], the target named is Tyrosine-protein kinase Blk (Homo sapiens) (UniProt P51451). Put plainly: Inhibition of BLK (unknown origin) at 0.49 uM relative to control.
Experiment [4] addresses Mitogen-activated protein kinase 14 (Homo sapiens) (UniProt Q16539). Put plainly: Inhibition of p38a (unknown origin) at 0.49 uM relative to control.
Experiment [5] has as its target Serine/threonine-protein kinase MARK1 (Homo sapiens) (UniProt Q9P0L2). Put plainly: Inhibition of MARK1 (unknown origin) at 0.49 uM relative to control.
The target of experiment [6] is Ephrin type-A receptor 1 (Homo sapiens) (UniProt P21709). Put plainly: Inhibition of EPHA1 (unknown origin) at 0.49 uM relative to control.
Experiment [7] addresses Mitogen-activated protein kinase 3 (Homo sapiens) (UniProt P27361). Put plainly: Inhibition of Erk1 (unknown origin) at 0.49 uM relative to control.
For experiment [8], the target named is Mitogen-activated protein kinase kinase kinase kinase 4 (Homo sapiens) (UniProt O95819). Kind of experiment: Inhibition of HGK (unknown origin) at 0.45 uM relative to control.
Experiment [9] has as its target Calcium/calmodulin-dependent protein kinase type II subunit beta (Homo sapiens) (UniProt Q13554). Put plainly: Inhibition of CaMK2-beta (unknown origin) at 0.45 uM relative to control.
Experiment [10] deals with Tyrosine-protein kinase ABL2 (Homo sapiens) (UniProt P42684). Put plainly: Inhibition of Arg (unknown origin) at 0.45 uM relative to control.
In experiment [11] the target is Ephrin type-B receptor 4 (Homo sapiens) (UniProt P54760). Put plainly: Inhibition of EPHB4 (unknown origin) at 0.45 uM relative to control.
Ephrin type-B receptor 4 (Homo sapiens), sequence (P54760 whole entry): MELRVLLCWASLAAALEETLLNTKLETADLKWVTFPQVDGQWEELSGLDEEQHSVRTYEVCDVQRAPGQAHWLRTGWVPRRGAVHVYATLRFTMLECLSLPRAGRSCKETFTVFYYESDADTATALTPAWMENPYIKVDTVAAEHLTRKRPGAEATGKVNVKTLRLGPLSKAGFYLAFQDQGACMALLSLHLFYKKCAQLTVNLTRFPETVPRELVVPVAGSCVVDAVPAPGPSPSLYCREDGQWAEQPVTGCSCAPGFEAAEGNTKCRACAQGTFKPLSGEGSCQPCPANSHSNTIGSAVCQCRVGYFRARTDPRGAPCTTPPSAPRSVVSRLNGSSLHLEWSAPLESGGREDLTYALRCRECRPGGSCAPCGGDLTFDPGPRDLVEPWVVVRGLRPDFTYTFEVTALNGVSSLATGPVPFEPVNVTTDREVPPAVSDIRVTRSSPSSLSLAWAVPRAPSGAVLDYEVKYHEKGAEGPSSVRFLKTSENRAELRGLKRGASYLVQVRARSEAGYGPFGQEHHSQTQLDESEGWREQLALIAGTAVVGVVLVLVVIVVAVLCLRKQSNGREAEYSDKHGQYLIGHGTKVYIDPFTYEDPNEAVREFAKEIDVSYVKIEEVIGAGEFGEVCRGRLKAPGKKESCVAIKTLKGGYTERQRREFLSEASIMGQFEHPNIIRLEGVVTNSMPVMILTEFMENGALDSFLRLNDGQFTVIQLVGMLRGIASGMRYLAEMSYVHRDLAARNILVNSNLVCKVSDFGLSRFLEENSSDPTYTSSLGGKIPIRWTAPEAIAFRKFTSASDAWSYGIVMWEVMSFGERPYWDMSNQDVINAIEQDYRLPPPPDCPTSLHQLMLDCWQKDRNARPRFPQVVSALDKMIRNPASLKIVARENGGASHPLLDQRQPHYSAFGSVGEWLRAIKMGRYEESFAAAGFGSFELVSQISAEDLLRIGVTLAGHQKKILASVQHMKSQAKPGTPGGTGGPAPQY

Serine/threonine-protein kinase MARK1 (Homo sapiens), sequence (Q9P0L2 whole entry, looked up): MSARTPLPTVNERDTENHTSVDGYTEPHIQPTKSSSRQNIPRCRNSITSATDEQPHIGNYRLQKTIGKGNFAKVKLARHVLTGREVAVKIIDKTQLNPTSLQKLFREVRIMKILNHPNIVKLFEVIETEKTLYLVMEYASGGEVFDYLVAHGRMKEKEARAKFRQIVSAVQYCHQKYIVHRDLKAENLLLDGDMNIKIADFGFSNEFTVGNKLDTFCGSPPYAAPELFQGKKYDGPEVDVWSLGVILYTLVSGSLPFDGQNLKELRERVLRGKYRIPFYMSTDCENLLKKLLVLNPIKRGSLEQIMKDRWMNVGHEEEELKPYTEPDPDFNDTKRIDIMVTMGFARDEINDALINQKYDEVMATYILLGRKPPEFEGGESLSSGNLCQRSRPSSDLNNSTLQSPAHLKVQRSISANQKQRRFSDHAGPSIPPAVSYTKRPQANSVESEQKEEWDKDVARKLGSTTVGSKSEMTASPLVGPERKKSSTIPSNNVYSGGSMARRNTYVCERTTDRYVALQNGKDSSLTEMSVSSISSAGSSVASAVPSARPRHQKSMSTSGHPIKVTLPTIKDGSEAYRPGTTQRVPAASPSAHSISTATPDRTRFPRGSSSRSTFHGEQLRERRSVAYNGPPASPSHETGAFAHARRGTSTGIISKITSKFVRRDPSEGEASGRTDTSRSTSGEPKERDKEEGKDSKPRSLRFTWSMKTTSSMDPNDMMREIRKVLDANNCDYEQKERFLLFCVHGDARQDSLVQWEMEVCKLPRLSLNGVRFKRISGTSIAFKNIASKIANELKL
Mitogen-activated protein kinase 3 (Homo sapiens), sequence (P27361 whole entry): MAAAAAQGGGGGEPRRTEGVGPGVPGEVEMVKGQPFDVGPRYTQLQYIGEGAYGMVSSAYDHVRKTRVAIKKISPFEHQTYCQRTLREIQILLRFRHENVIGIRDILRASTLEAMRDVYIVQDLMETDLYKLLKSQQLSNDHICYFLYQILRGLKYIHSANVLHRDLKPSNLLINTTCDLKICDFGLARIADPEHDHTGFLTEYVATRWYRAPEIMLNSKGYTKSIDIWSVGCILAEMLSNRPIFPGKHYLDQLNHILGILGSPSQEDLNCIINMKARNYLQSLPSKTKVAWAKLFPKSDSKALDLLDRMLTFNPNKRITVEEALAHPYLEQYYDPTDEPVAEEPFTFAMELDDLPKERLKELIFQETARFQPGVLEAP
Calcium/calmodulin-dependent protein kinase type II subunit beta (Homo sapiens), sequence (Q13554 whole entry): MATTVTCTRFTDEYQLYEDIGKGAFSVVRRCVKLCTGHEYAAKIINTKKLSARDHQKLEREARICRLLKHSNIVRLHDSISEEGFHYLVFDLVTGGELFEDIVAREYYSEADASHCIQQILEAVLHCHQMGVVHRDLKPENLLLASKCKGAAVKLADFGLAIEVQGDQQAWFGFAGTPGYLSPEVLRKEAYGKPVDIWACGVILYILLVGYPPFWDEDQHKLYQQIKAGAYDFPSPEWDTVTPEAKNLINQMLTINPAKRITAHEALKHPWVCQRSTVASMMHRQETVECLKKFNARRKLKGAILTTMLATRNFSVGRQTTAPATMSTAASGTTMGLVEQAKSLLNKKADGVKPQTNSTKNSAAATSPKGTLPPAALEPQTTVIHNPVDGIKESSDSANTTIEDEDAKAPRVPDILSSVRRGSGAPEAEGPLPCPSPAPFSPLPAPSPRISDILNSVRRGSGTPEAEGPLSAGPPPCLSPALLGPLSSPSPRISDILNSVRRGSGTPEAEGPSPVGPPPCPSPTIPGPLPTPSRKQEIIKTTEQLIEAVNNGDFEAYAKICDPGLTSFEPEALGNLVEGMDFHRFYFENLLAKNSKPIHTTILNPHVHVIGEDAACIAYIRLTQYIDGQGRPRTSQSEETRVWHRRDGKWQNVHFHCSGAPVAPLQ
Tyrosine-protein kinase Blk (Homo sapiens), sequence (P51451 2-505 limits assumed): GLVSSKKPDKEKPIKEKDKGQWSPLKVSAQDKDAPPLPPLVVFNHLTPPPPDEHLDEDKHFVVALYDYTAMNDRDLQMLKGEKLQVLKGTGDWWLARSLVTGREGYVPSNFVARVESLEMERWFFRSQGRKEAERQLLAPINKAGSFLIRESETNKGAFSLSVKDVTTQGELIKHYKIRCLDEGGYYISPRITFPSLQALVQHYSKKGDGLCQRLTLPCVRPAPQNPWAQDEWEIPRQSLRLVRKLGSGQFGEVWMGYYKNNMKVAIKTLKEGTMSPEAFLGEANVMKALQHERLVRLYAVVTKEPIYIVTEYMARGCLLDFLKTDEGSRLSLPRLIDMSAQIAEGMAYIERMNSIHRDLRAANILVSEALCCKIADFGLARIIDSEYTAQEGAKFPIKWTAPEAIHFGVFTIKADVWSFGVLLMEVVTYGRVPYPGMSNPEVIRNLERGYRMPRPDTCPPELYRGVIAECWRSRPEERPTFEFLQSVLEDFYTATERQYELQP
Mitogen-activated protein kinase kinase kinase kinase 4 (Homo sapiens), sequence (O95819 2-1239 limits assumed): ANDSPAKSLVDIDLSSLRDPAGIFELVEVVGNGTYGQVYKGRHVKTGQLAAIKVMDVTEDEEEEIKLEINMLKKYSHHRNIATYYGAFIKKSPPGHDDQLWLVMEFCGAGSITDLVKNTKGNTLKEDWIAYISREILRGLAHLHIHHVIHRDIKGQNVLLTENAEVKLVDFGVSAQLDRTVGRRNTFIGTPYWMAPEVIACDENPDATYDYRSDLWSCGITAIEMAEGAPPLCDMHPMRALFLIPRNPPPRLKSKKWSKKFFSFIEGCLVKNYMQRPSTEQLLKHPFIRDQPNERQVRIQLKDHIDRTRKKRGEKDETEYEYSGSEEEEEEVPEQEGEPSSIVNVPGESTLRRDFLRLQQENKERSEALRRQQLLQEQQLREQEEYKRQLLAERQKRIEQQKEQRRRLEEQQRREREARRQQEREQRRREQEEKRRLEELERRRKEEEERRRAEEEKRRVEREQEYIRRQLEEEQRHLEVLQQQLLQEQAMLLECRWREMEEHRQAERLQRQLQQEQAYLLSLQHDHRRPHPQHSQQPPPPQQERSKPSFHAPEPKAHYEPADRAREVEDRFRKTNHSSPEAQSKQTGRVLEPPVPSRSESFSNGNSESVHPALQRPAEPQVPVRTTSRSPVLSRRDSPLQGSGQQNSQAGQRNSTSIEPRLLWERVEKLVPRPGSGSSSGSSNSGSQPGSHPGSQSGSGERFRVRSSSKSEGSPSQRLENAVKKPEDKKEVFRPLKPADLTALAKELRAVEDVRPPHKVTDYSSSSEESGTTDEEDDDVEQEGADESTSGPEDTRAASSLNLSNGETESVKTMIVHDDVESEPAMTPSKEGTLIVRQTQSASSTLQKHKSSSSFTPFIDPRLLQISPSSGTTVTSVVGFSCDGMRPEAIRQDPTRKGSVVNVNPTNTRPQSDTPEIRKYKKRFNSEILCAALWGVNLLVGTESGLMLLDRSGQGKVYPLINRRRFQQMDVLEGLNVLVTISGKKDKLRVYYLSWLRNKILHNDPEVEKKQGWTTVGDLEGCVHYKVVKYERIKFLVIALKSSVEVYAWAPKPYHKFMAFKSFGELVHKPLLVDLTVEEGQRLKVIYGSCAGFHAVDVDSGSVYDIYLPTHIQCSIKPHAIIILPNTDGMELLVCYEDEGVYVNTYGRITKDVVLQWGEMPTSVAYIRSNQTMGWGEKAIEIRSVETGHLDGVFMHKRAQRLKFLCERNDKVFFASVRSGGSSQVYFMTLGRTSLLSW
Mitogen-activated protein kinase 14 (Homo sapiens), sequence (Q16539 whole entry): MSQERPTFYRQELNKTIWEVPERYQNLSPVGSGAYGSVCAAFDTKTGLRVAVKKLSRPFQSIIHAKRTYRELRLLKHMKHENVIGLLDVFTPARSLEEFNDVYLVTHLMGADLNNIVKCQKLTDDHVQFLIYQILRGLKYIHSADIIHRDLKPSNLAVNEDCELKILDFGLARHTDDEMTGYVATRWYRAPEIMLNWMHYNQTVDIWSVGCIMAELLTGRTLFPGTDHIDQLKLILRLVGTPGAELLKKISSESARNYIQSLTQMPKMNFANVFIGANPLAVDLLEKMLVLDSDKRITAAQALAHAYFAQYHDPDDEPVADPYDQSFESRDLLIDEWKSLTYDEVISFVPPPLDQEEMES

One may read the inhibition as the relative decrease from the control value, in per cent. In the case of `COC(=O)Nc1noc2cc(-c3c(-c4ccccn4)n[nH]c3C)ccc12`, the inhibition in [1] is 3.3%; in experiment [2] it was 1.7%.

Take `Cc1[nH]nc(C2CC2)c1-c1ccc2c(NC(=O)C3CC3)noc2c1`: the inhibition in experiment [3] was 1%; in experiment [4] it was -1.7%; in experiment [5] it was 3.3%; in [6] it was 3.3%; in [7], 3.7%.

For `Cc1n[nH]c(C)c1-c1ccc2c(NC(=O)c3ccc(N4CCN(C)CC4)cc3)n[nH]c2c1`, the inhibition in experiment [8] is 73.3%; in experiment [9], -0.3%; in experiment [10] it was 66.3%; in [11], 8%.

For the origin of these results see ChEMBL document CHEMBL4052759, “Discovery of DS79182026: A potent orally active hepcidin production inhibitor” (Bioorg Med Chem Lett, 2017).
